Assay [1] deals with 5-hydroxytryptamine receptor 1B (Homo sapiens, UniProt P28222).
The target in assay [2] is 5-hydroxytryptamine receptor 4 (Homo sapiens, UniProt Q13639).
The target in assay [3] is 5-hydroxytryptamine receptor 7 (Homo sapiens, UniProt P34969).
Assay [4] deals with 5-hydroxytryptamine receptor 2B (Homo sapiens, UniProt P41595).
For assay [5], the target named is T1, 5-hydroxytryptamine receptor 1F (Homo sapiens, UniProt P30939).
T1 sequence (P30939 whole entry): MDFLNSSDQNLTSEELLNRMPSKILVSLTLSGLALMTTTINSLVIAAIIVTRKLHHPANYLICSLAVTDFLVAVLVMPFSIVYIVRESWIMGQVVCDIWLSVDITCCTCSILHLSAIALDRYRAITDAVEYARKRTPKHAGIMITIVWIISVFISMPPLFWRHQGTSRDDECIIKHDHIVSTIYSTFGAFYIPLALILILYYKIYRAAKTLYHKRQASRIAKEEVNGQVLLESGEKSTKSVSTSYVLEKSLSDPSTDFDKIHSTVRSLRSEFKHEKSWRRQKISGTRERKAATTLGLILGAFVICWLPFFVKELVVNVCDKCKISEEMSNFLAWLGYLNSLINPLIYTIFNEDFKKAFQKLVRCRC

Assay [6] has as its target 5-hydroxytryptamine receptor 6 (Homo sapiens, UniProt P50406).
Assay [7] concerns the target 5-hydroxytryptamine receptor 2A (Homo sapiens, UniProt P28223).
Assay [8] concerns the target 5-hydroxytryptamine receptor 1E (Homo sapiens, UniProt P28566).

Structures are written as SMILES.

In general, Ki refers to a measure of affinity in units of concentration, obtained from inhibition or displacement.

Chain of 5-hydroxytryptamine receptor 6 (P50406 whole entry): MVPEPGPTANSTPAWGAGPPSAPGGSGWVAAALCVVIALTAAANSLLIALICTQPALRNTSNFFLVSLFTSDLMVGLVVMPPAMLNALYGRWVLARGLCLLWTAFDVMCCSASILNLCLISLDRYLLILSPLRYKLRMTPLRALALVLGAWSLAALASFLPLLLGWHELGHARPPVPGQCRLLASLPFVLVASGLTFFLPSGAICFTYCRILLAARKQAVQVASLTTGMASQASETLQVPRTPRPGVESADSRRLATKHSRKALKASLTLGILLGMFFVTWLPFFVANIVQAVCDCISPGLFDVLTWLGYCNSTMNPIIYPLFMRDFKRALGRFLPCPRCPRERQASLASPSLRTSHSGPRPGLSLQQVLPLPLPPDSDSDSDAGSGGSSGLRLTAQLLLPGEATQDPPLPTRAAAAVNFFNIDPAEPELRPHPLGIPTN
Chain of 5-hydroxytryptamine receptor 2A (P28223 whole entry): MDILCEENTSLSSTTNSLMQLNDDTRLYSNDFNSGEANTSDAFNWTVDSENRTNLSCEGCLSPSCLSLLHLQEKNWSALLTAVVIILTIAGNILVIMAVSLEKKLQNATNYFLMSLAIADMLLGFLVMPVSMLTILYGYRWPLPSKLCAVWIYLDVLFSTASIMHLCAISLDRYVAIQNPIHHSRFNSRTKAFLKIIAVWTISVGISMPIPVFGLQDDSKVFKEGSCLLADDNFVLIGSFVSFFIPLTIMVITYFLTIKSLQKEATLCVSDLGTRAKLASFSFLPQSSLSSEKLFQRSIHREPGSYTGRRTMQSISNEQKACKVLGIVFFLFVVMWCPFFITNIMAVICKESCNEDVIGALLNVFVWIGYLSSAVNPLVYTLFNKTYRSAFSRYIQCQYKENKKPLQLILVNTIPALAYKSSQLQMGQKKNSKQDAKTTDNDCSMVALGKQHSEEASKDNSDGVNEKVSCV
Chain of 5-hydroxytryptamine receptor 4 (Q13639 whole entry): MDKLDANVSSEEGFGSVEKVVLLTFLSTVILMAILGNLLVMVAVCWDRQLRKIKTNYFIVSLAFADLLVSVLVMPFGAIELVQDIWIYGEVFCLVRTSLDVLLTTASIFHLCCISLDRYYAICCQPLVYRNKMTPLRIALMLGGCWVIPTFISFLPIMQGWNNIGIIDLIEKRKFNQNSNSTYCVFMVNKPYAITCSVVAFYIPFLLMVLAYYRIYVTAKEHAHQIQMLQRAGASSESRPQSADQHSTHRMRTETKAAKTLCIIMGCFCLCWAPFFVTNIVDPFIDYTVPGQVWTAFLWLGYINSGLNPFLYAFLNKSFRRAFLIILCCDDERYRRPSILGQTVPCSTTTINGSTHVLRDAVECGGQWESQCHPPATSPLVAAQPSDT
Chain of 5-hydroxytryptamine receptor 1B (P28222 whole entry): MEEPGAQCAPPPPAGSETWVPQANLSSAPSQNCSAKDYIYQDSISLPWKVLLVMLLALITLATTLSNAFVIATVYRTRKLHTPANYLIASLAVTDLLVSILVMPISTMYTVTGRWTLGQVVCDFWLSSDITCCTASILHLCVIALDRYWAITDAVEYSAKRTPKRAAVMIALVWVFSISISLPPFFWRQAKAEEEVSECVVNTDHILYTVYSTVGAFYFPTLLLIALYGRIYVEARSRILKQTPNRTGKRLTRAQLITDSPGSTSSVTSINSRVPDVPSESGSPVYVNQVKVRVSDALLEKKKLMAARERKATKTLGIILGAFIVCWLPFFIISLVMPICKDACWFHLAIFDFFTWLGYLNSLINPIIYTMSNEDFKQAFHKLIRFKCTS
Chain of 5-hydroxytryptamine receptor 2B (P41595 whole entry): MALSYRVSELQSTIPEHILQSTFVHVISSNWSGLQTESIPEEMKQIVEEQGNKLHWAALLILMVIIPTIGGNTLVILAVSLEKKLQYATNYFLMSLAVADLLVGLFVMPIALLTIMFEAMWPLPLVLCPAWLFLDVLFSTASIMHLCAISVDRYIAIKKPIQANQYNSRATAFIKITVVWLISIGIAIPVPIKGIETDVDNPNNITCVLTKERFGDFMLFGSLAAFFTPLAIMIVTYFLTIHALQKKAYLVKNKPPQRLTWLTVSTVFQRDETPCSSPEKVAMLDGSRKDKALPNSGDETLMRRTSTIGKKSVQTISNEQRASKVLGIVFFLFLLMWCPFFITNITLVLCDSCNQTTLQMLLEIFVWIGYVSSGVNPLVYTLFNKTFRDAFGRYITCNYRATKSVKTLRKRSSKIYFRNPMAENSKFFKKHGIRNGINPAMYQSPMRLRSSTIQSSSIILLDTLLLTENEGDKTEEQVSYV
Chain of 5-hydroxytryptamine receptor 1E (P28566 whole entry): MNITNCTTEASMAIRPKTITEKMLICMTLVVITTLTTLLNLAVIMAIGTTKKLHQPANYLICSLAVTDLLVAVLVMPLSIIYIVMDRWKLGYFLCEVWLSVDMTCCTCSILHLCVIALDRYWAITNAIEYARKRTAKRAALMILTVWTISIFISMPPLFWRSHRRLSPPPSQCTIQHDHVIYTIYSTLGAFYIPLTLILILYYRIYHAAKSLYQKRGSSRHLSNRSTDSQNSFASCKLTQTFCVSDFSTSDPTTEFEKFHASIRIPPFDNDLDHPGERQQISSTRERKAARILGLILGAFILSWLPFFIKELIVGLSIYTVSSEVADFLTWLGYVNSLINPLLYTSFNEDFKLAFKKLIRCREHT
Chain of 5-hydroxytryptamine receptor 7 (P34969 whole entry): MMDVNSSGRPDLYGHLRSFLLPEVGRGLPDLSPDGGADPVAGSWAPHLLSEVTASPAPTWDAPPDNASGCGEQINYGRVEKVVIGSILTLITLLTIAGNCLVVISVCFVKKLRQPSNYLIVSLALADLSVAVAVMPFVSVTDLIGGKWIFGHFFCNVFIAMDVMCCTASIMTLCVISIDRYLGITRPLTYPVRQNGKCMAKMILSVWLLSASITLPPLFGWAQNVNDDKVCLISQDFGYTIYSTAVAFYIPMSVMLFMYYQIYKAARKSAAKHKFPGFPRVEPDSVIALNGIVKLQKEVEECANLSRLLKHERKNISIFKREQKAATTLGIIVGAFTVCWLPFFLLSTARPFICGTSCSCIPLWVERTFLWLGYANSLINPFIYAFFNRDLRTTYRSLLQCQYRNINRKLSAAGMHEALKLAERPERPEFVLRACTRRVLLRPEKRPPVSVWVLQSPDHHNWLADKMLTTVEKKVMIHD

The compound `COc1ccc(NC(=O)c2ccc(-c3ccc(-c4noc(C)n4)cc3C)cc2)cc1N1CCN(C)CC1` [SMR001230745] came in with a Ki in assay [1] of 0.00093 µM.

Consider `Cc1nc(-c2ccc(-c3ccc(C(=O)N4CCc5cc6c(cc54)C4(CCN(C)CC4)CO6)cc3)c(C)c2)no1` [4-[2-methyl-4-(5-methyl-1,2,4-oxadiazol-3-yl)phenyl]phenyl-1'-methylspiro[3,5,6,7-tetrahydro-2H-furo[2,3-f]indole-3,4'-(hexahydropyridine)]-5-ylmethanone], for which the Ki is 2.04 µM in assay [2]; 1 µM in assay [3]; 3.16 µM in assay [4]; above 10 µM in assay [5]; 2.14 µM in assay [6]; 1.2 µM in assay [7]. The compound further came in with a Ki in assay [8] above 10 µM.

The record behind these values is BindingDB's records for doi:10.1038/sj.bjp.0702059 (Smithkline Beecham Pharmaceuticals, 1998).
